Patent US8541449B2, “Substituted isoquinolines and isoquinolinones as Rho kinase inhibitors” (Sanofi, priority 2008, dated 2013)

Columns and labels:
[1] = test system: Protein Kinase G; settings: Rho kinase versus Protein Kinase G; cited from earlier work
[2] = biological target: T1, human recombinant ROCK II (Homo sapiens, UniProt O75116); assay: Determination of Rho kinase inhibition (Caliper peptide phosphorylation assay); type: biochemical; settings: 60 min at 32° C., negative decadal logarithm of the IC50
T1 construct: N-terminal His6-tagged recombinant human ROCK-II residues 11-552; His6 (N); purchased Millipore GmbH, Schwalbach, Germany
Procedure, shortened: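 His6-tagged human ROCK II (residues 11-552) phosphorylated a fluorescein-labelled peptide for 60 min at 32° C in Tris-HCl pH 7.4 with MgCl2, DTT and BSA, using 3 μM peptide and 120 μM ATP as diluted stocks. EDTA-stopped; phosphopeptide separated and detected by Caliper mobility shift; IC50 determined.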

[3] = biological target: T2, recombinant human PKG1-beta (Homo sapiens, UniProt Q13976); assay: Determination of Protein Kinase G inhibition (Caliper peptide phosphorylation assay); type: biochemical; settings: recombinant human PKG1-beta versus ROCK II
T2 construct: Active recombinant human PKG1-beta (full-length, with N-terminal His-tag); His-tag (N); purchased Millipore GmbH, Schwalbach, Germany
T2 sequence (Q13976 1-686 isoform Q13976-2): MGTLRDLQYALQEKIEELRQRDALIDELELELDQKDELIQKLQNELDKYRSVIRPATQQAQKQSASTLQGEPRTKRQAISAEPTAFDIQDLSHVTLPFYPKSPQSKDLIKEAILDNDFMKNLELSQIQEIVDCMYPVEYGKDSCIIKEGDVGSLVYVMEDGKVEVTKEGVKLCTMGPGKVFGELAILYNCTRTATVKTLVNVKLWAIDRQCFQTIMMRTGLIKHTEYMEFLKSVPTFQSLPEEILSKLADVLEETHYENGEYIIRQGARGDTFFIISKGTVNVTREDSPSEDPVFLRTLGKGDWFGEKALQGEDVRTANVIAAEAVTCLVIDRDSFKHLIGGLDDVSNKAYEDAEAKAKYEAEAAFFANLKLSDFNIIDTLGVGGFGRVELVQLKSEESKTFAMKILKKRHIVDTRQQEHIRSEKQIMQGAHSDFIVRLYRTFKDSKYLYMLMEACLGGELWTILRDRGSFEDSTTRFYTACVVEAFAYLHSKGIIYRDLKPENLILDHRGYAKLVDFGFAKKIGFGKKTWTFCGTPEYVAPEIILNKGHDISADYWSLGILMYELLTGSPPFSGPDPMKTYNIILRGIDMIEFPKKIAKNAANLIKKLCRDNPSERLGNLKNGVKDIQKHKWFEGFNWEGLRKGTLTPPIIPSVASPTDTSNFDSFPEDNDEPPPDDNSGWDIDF
Procedure, shortened: (§1)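 Full-length His-tagged PKG1-beta (150 ng/ml working) or His-tagged PKA residues 1-351 (30 ng/ml working) was mixed with compound in pH 7.4 Tris/MgCl2/DTT buffer. Fluorescein-peptide substrate and ATP (3 μM and 120 μM working) were then added for 60 min at 32 °C before an EDTA stop. Phosphopeptide was separated electrophoretically on a Caliper instrument to derive IC50.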

[4] = biological target: T3, recombinant human PKA (Homo sapiens, UniProt P17612); assay: Determination of Protein Kinase A inhibition (Caliper peptide phosphorylation assay); type: biochemical; settings: recombinant human PKA versus ROCK II
T3 construct: Active recombinant human PKA (residues 1-351, N-terminal His-tag); His-tag (N); purchased Invitrogen, Karlsruhe, Germany
Procedure, shortened: as §1

T1 sequence (O75116 11-552): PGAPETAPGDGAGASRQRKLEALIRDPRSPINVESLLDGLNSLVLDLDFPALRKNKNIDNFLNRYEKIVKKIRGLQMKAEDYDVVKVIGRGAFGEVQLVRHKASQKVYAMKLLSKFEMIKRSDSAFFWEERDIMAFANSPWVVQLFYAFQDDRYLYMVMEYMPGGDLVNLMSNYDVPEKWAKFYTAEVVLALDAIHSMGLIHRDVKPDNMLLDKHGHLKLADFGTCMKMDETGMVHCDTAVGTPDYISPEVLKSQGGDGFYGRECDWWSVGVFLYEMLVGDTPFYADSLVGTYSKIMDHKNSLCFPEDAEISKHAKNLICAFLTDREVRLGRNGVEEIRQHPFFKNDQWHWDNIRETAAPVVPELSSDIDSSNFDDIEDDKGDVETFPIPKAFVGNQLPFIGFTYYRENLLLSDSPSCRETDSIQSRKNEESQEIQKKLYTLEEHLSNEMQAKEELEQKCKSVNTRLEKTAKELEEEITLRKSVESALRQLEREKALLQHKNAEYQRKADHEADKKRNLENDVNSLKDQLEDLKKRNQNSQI

SMILES	selectivity against Protein Kinase G [1] [fold]	pIC50 [2]	Selectivity against PKG [3]	Selectivity against PKA [4]
C[C@@H](N)[C@H]1CC[C@H](C(=O)Nc2ccncc2)CC1 [Example Y-27632]	20	–	–	–
CCC(N)[C@]1(c2ccc(F)cc2)CC[C@H](Oc2cc3cc[nH]c(=O)c3cc2Cl)CC1 (stereo partly drawn) [Example 1, cis-6-[4-(1-Amino-propyl)-4-(4-fluoro-phenyl)-cyclohexyloxy]-7-chloro-2H-isoquinolin-1-one]	–	+++++++ (8.0≦pIC50)	>1000	>1000
CCC(N)C1(c2ccc(F)cc2)CC(Oc2cc3cc[nH]c(=O)c3cc2Cl)C1 (stereo not shown) [Example 125, 6-[3-(1-Amino-propyl)-3-(4-fluoro-phenyl)-cyclobutyloxy]-7-chloro-2H-isoquinolin-1-one]	–	+++++ (6.0≦pIC50<7.0)	>10	>10
CCC(N)[C@]1(c2ccccc2Br)CC[C@H](Oc2cc3cc[nH]c(=O)c3cc2Cl)CC1 (stereo partly drawn) [Example 7, cis-6-[4-(1-Amino-propyl)-4-(2-bromo-phenyl)-cyclohexyloxy]-7-chloro-2H-isoquinolin-1-one]	–	+++++++ (8.0≦pIC50)	>300	>1000
CCC(N)[C@]1(c2cc(F)cc(F)c2)CC[C@H](Oc2cc3cc[nH]c(=O)c3cc2F)CC1 (stereo partly shown) [Example 66]	–	+++++ (6.0≦pIC50<7.0)	>10	>10
NC(CF)[C@]1(c2ccc(F)cc2)CC[C@H](Oc2cc3cc[nH]c(=O)c3cc2Cl)CC1 (stereo partly drawn) [Example 114, cis-6-[4-(1-Amino-2-fluoro-ethyl)-4-(4-fluoro-phenyl)-cyclohexyloxy]-7-chloro-2H-isoquinolin-1-one]	–	+++++++ (8.0≦pIC50)	>1000	>1000
CCC(N)[C@]1(c2ccc(F)cc2)CC[C@@H](Oc2cc3cc[nH]c(=O)c3cc2Cl)CC1 (stereo partly drawn) [Example 31, trans-6-[4-(1-amino-propyl)-4-(4-fluoro-phenyl)-cyclohexyloxy]-7-chloro-2H-iso quinolin-1-one]	–	++++++ (7.0≦pIC50<8.0)	>100	>300
CC(C)CC(N)[C@]1(c2ccccc2)CC[C@@H](Oc2cc3cc[nH]c(=O)c3cc2Cl)CC1 (stereo partly drawn) [Example 20, trans-6-[4-(1-Amino-3-methyl-butyl)-4-phenyl-cyclohexyloxy]-7-chloro-2H-iso quinolin-1-one]	–	++++++ (7.0≦pIC50<8.0)	>100	>100
CC(N)[C@]1(c2ccc(F)cc2)CC[C@H](Oc2cc3cc[nH]c(=O)c3cc2Cl)CC1 (stereo partly drawn) [Example 15, cis-6-[4-(1-Amino-ethyl)-4-(4-fluoro-phenyl)-cyclo-hexyloxy]-7-chloro-2H-iso quinolin-1-one]	–	+++++++ (8.0≦pIC50)	>300	>1000
